Test results published in patent US20240398752A1 (AJOU UNIVERSITY INDUSTRY-ACADEMIC COOPERATION FOUNDATION, priority 2021, published 2024).

How the values were obtained:
[1] = in vivo; settings: for clearance: CL; for CL renal: CLR; for half-life: Terminal half-life; for Vd: Vss; for Ae0-24 h: urine 24 hours; for reduction in AUC in the LC-ISN group compared to the LC group: isosakuranetin 15 mg/kg
Method: Blood collection was performed at 0, 1, 5, 15, 30, 45, 60, 90, 120, 180, 240, 360, 480, 600, and 720 minutes for intravenous administration of tofacitinib, and at 0, 5, 15, 30, 45, 60, 90, 120, 180, 240, 360, 480, 600, and 720 minutes for oral administration to quantify concentrations of tofacitinib in the plasma. Then, urine was collected for 24 hours to analyze the concentration of tofacitinib excreted in urine as well.

[2] = Method: In the experiment, the concentration of tofacitinib was set at 5, 10, 20, 50, 100, 200, and 500 μM, 1 mg of microsomes and nicotinamide adenine dinucleotide phosphate hydrogen-generating system (Corning Inc., Corning, NY, USA) were blended, and the total volume was adjusted to 1 mL with 0.1 M potassium phosphate buffer (pH 7.4), followed by incubation for 15 minutes at a rate of 50 oscillations per minutes in a water-bath (37° C.). The concentration (Km) of tofacitinib when Vmax, the maximum rate of drug metabolism (Vmax), was halved was measured by the Lineweaver-Burk plot. The intrinsic clearance (CLint) of the drug was calculated by dividing Vmax by Km.
[3] = rat, in vivo, iv, 10 mg/kg, tofacitinib 10 mg/kg intravenous, CON rats
[4] = rat, in vivo, iv, 10 mg/kg, tofacitinib 10 mg/kg intravenous, LC rats
[5] = rat, in vivo, iv, 10 mg/kg, tofacitinib 10 mg/kg intravenous, LC-ISN rats
[6] = rat, in vivo, po, 20 mg/kg, tofacitinib 20 mg/kg oral, CON rats
[7] = rat, in vivo, po, 20 mg/kg, tofacitinib 20 mg/kg oral, LC-ISN 15 rats
[8] = rat, in vivo, po, 20 mg/kg, tofacitinib 20 mg/kg oral, LC rats
[9] = tofacitinib 10 mg/kg intravenous
[10] = tofacitinib 10 mg/kg intravenous, CON rats
[11] = tofacitinib 10 mg/kg intravenous, LC rats
[12] = tofacitinib 10 mg/kg intravenous, LC-ISN rats
[13] = tofacitinib 20 mg/kg oral, CON rats
[14] = tofacitinib 20 mg/kg oral, LC rats
[15] = tofacitinib 20 mg/kg oral, LC-ISN 15 rats

Compound: C[C@@H]1CCN(C(=O)CC#N)C[C@@H]1N(C)c1ncnc2[nH]ccc12 [tofacitinib]
- AUC ([1]; rat, in vivo, iv, 10 mg/kg, AUC, tofacitinib 10 mg/kg intravenous, CON rats): 7330 ng·h/mL
- AUC ([1]; rat, in vivo, iv, 10 mg/kg, AUC, tofacitinib 10 mg/kg intravenous, LC rats): 18900 ng·h/mL
- clearance [1, 3]: 24.1 ± 6.27 mL/min/kg
- clearance [1, 4]: 11 ± 2.06 mL/min/kg
- clearance [1, 5]: 13.8 ± 1.73 mL/min/kg
- CL renal [1, 3]: 3.73 ± 1.09 mL/min/kg
- CL renal [1, 4]: 4.65 ± 2.74 mL/min/kg
- CL renal [1, 5]: 4.1 ± 1.64 mL/min/kg
- half-life ([1]; rat, in vivo, iv, 10 mg/kg, tofacitinib 10 mg/kg intravenous, CON (control) rats): 35.4 ± 19.2 min
- half-life ([1]; rat, in vivo, iv, 10 mg/kg, tofacitinib 10 mg/kg intravenous, LC rats (liver cirrhosis induced by DMN)): 113 ± 43.7 min
- Vd [1, 3]: 0.429 ± 0.253 L/kg
- Vd [1, 4]: 0.798 ± 0.177 L/kg
- Vd [1, 5]: 0.8 ± 0.326 L/kg
- AUC ([1]; rat, in vivo, po, 20 mg/kg, AUC, tofacitinib 20 mg/kg oral, CON rats): 6400 ng·h/mL
- AUC ([1]; rat, in vivo, po, 20 mg/kg, AUC, tofacitinib 20 mg/kg oral, LC rats): 33800 ng·h/mL
- AUC ([1]; rat, in vivo, po, 20 mg/kg, AUC, tofacitinib 20 mg/kg oral, LC-ISN 15 rats): 20700 ng·h/mL
- CL renal [1, 6]: 6.98 ± 2.99 mL/min/kg
- CL renal [1, 7]: 5.71 ± 2.47 mL/min/kg
- Cmax [1, 6]: 3530 ± 1460 ng/mL
- Cmax [1, 8]: 9100 ± 1260 ng/mL
- Cmax [1, 7]: 6080 ± 1990 ng/mL
- Tmax [1, 6]: 50 min
- Tmax [1, 8]: 55.7 min
- Tmax [1, 7]: 85.7 min
- increase of AUC in the LC group compared to the CON group [1, 9]: 158%
- reduction in nonrenal clearance (CLNR) in the LC group compared to the CON group [1, 9]: 69.9%
- reduction in total body clearance (CL) in the LC group compared to the CON group [1, 9]: 54.4%
- CLNR [1, 10]: 21.1 ± 4.57 mL/min/kg
- GI24 h [1, 10]: 0.164 ± 0.102 % of dose
- Ae0-24 h [1, 10]: 13.9 ± 2.28 % of dose
- CLNR [1, 11]: 6.35 ± 1.27 mL/min/kg
- GI24 h [1, 11]: 2.07 ± 2.12 % of dose
- Ae0-24 h [1, 11]: 40.2 ± 18.9 % of dose
- AUC [1, 12]: 12300 ± 1780 ng·h/mL
- CLNR [1, 12]: 9.68 ± 2.40 mL/min/kg
- GI24 h [1, 12]: 0.166 ± 0.135 % of dose
- Terminal half-life ([1]; tofacitinib 10 mg/kg intravenous, LC-ISN rats (LC treated with isosakuranetin 15 mg/kg)): 58.2 ± 16.8 min
- Ae0-24 h [1, 12]: 30.1 ± 12.3 % of dose
- reduction in AUC in the LC-ISN group compared to the LC group [1, 9]: 35.1%
- increase of AUC in the LC group compared to the CON group ([1]; tofacitinib 20 mg/kg oral): 429%
- F [1, 13]: 43.6%
- GI24 h [1, 13]: 0.106 ± 0.101 % of dose
- Ae0-24 h [1, 13]: 11.8 ± 4.08 % of dose
- CLR [1, 14]: 3.62 ± 1.78 mL/min/kg
- F [1, 14]: 89.5%
- GI24 h [1, 14]: 1.73 ± 2.04 % of dose
- Ae0-24 h [1, 14]: 35.8 ± 16.9 % of dose
- F [1, 15]: 84.1%
- GI24 h [1, 15]: 0.340 ± 0.288 % of dose
- Ae0-24 h [1, 15]: 35.9 ± 16.8 % of dose
- reduction in AUC in the LC-ISN group compared to the LC group ([1]; tofacitinib 20 mg/kg oral): 38.9%
- Km in the three groups (CON, LC, LC-ISN) ([2]; hepatic microsome): No significant difference
- decrease of Vmax in the LC group compared to the CON group ([2]; hepatic microsome): 63.4%
- increase of Vmax in the LC-ISN group compared to the LC group ([2]; hepatic microsome): 204%
- CLint of the LC-ISN group recovered to % of the CON group ([2]; hepatic microsomes): 92.2%
- decrease of CLint in the LC group compared to the CON group ([2]; hepatic microsomes): 64.9%
- increase of CLint in the LC-ISN group compared to the LC group ([2]; hepatic microsomes): 163%
- CLint in the LC group compared to the CON group and the LC-ISN group ([2]; small intestinal microsome): no statistically significant difference
